Consider 10 compounds from US11096985B2, “Antimicrobial peptides, their variants and uses” (priority 2015, dated 2021).

Assay [1] concerns S. aureus COL (MRSA). Nature of the assay: Synergistic activity with Ertapenem (4 μg/ml) against MRSA, MIC. Type of assay: cell-based, Staphylococcus aureus. The note with it: S. aureus COL, together with 4 μg/ml Ertapenem (synergistic activity). The procedure:
(§1) Minimum inhibition concentrations (MICs) were determined against Escherichia coli (ATCC 25922), Staphylococcus aureus (ATCC 25923), Klebsiella pneumoniae (ATCC 10031) and Pseudomonas aeruginosa (ATCC 27853). Also clinical strains of E. coli, K. pneumoniae, E. cloacae, P. aeruginosa, Serratia marcescens, Proteus mirabilis, S. pneumoniae, Acinetobacter baumannii, A. johnsonii and S. aureus were used for MICs assays. Additionally, clinical strains of yeast including Candida albicans, C. glabrata, C. parapsilosis and C. quillermondiae were used. The susceptibility of these microorganisms to Chain peptides were determined using micro broth dilution assay. Colonies of the respective microorganism from Muller Hinton (MH) agar plates incubated overnight were suspended in MH broth media and final concentration of microorganism was adjusted to 5.0×10^5 cfu/ml. An aliquot of 10 μl of each Chain peptide, or gentamicin, tetracycline as reference antibiotics were added in differing concentrations along with 90 μl of bacterial suspension to 96 well polypropylene plates and incubated at 37° C. for 20 to 24 hours. Concentrations of Chain peptides and reference antibiotics ranged from 0.125 to 128 μg/ml and the MICs were recorded as the lowest concentration with no visual growth of bacteria. Similarly, antifungal MICs were tested in Potato dextrose broth.
(§2) Peptides Chain 104, Chain 105, Chain 201, Chain 308, Chain 310 were tested against antibiotic-sensitive strains of S. aureus RN4220 and methicillin resistant strains of S. aureus COL (MRSA). Chain peptides comprising of either L- or D-form amino acids were tested against these bacteria, and the D-form peptides were found have better activity compared to L-form (Table 6). Synergistic activity of chain peptides along with Ertapenem (4 μg/ml) was tested to know whether it will influence the activity against MRSA strains. […] Chain 310 has the best antibacterial activity against the MRSA strains with a MIC of 0.06 & 0.03 μg/ml along with Ertapenem (4 μg/ml) for both forms of L and D-peptides (Table 6).

The subject of assay [2] is S. aureus RN4220. The assay is classed as cell-based, Staphylococcus aureus. As to conditions: antibiotic sensitive strain S. aureus RN4220. As to the method: as §1, §2
The subject of assay [3] is clinical strains of C. quillermondiae. Nature of the assay: MIC, clinical yeast strains, C. quillermondiae. Type of assay: cell-based. As to conditions: C. quillermondiae clinical yeast strain 1. As to the method: as §1
(§3) Clinical strains of yeasts including Candida albicans, C. glabrata, C. parapsilosis and C. quillermondiae were also tested with the 12 Chain peptides. The minimum inhibitory concentration (MICs) varied between these peptides and are presented in Tables 4a, 4b, 4c and 5a, 5b, 5c. Peptides Chain 105, 201 and 308 are broad spectrum antimicrobials with MICs between 0.5-32 μg/ml against all the bacteria and yeasts tested, except Serratia marcescens and Proteus mirabilis, against which the MICs were between 64-128 μg/ml. Peptide Chain 306 has narrow spectrum activity against E.coli at 1 μg/ml and for the rest of the bacterial strains at >32 μg/ml (FIG. 10).

Assay [4] concerns clinical strains of C. glabrata. In words: MIC, clinical yeast strains, C. glabrata. The assay is classed as cell-based, Candida glabrata. The arrangement: unit: μg/ml. As to the method: as §1, §3
Assay [5] deals with clinical strains of C. parapsilosis. Nature of the assay: MIC, clinical yeast strains, C. parapsilosis. The assay is classed as cell-based, Candida parapsilosis. The arrangement: unit: μg/ml. As to the method:
as §1, §3

Assay [6] relates to clinical strains of Candida albicans. In words: MIC, clinical yeast strains, Candida albicans. The assay is classed as cell-based. The arrangement: unit: μg/ml. The procedure:
as §1, §3

The mark [7] stands for this setting: C. glabrata clinical yeast strain 1.
[8] abbreviates: C. glabrata clinical yeast strain 2.
Setting [9] is: C. glabrata clinical yeast strain 3.
Where [10] appears, read: C. glabrata clinical yeast strain 4.
[11] abbreviates: C. parapsilosis clinical yeast strain 1.
Where [12] appears, read: C. parapsilosis clinical yeast strain 2.
[13] abbreviates: C. parapsilosis clinical yeast strain 3.
The mark [14] stands for this setting: C. parapsilosis clinical yeast strain 4.
The mark [15] stands for this setting: Candida albicans clinical yeast strain 1.
[16] abbreviates: Candida albicans clinical yeast strain 2.
[17] abbreviates: Candida albicans clinical yeast strain 3.
Where [18] appears, read: Candida albicans clinical yeast strain 4.
The mark [19] stands for this setting: Candida albicans clinical yeast strain 5.

Where a SMILES comes first, the peptide text is derived from it. [ ]: non-standard residue; d: D form.

Regarding `CC(C)C[C@H](NC(=O)[C@H](CC(C)C)NC(=O)[C@H](Cc1ccccc1)NC(=O)[C@H](Cc1c[nH]c2ccccc12)NC(=O)[C@H](CCCCN)NC(=O)[C@H](CC(C)C)NC(=O)[C@@H](N)CCCNC(=N)N)C(=O)N[C@@H](Cc1ccccc1)C(=O)N[C@@H](CCCNC(=N)N)C(=O)N[C@@H](CCCCN)C(=O)N[C@@H](CCCNC(=N)N)C(=O)O` [Compound 308] (H-RLKWFLLFRKR-OH), the “Minimum inhibitory concentration (MIC), S. aureus COL + 4 μg/ml Ertapenem” value in assay [1] worked out at 0.5 µg/mL. Moreover, in assay [2], the “Minimum inhibitory concentration (MIC), S. aureus RN4220” value is over 64 µg/mL.

Take `CC[C@@H](C)[C@@H](NC(=O)[C@@H](Cc1c[nH]c2ccccc12)NC(=O)[C@H](N)CCCCN)C(=O)N[C@@H](C(=O)N[C@H](Cc1c[nH]c2ccccc12)C(=O)N[C@H](CCCNC(=N)N)C(=O)N[C@H](Cc1c[nH]c2ccccc12)C(=O)N[C@H](CCCNC(=N)N)C(=O)N[C@H](Cc1ccccc1)C(=O)N[C@H](CCCCN)C(=O)N[C@H](CCCNC(=N)N)C(=O)O)C(C)C` [201 D] (H-[dK][dW][dI][dV][dW][dR][dW][dR][dF][dK][dR]-OH): in assay [1], the “Minimum inhibitory concentration (MIC), S. aureus COL + 4 μg/ml Ertapenem” value is 1 µg/mL. Besides, the “Minimum inhibitory concentration (MIC), S. aureus RN4220” value in assay [2] was 2 µg/mL.

As to `CC[C@H](C)[C@H](NC(=O)[C@H](CCSC)NC(=O)[C@H](C)NC(=O)[C@H](CCCNC(=N)N)NC(=O)[C@H](Cc1c[nH]c2ccccc12)NC(=O)[C@H](CCCCN)NC(=O)[C@@H](N)CCCNC(=N)N)C(=O)N[C@@H](CCCNC(=N)N)C(=O)N[C@@H](CC(C)C)C(=O)N[C@@H](Cc1c[nH]cn1)C(=O)N[C@@H](C)C(=O)N[C@@H](CCCCN)C(=O)N[C@@H](Cc1c[nH]c2ccccc12)C(=O)N[C@@H](CC(C)C)C(=O)N[C@@H](CCCNC(=N)N)C(=O)N[C@@H](CCCCN)C(=O)O` [Compound 105] (H-RKWRAMIRLHAKWLRK-OH), the “Minimum inhibitory concentration (MIC), S. aureus COL + 4 μg/ml Ertapenem” value in assay [1] was 0.5 µg/mL. In assay [2], the “Minimum inhibitory concentration (MIC), S. aureus RN4220” value is over 64 µg/mL.

Consider `CC(C)C[C@@H](NC(=O)[C@@H](CCCCN)NC(=O)[C@@H](Cc1c[nH]c2ccccc12)NC(=O)[C@@H](CCCCN)NC(=O)[C@@H](C)NC(=O)[C@@H](Cc1c[nH]cn1)NC(=O)[C@@H](CC(C)C)NC(=O)[C@@H](CCCNC(=N)N)NC(=O)[C@@H](Cc1c[nH]c2ccccc12)NC(=O)[C@H](N)Cc1c[nH]c2ccccc12)C(=O)N[C@H](Cc1c[nH]c2ccccc12)C(=O)O` [Chain109D] (H-[dW][dW][dR][dL][dH][dA][dK][dW][dK][dL][dW]-OH), for which the Minimum inhibitory concentration in assay [3] was 128; in assay [4] (setting [7]), 128; in assay [4] (setting [8]), 128; in assay [4] (setting [9]), 16; in assay [4] (setting [10]) it was 64; in assay [5] (setting [11]) it was 128. Moreover, the Minimum inhibitory concentration in assay [5] (setting [12]) came to 128; in assay [5] (setting [13]), 128; in assay [5] (setting [14]) it was 8; in assay [6] (setting [15]), 128; in assay [6] (setting [16]), 128; in assay [6] (setting [17]), 128. The Minimum inhibitory concentration in assay [6] (setting [18]) and in assay [6] (setting [19]) was 128 in each case.

Regarding `C[C@@H]1[C@H](O)[C@@H](C)/C=C/C=C/C=C/C=C/C=C/C=C/C=C/[C@H](O[C@@H]2O[C@H](C)[C@@H](O)[C@H](N)[C@@H]2O)C[C@@H]2O[C@](O)(C[C@@H](O)C[C@@H](O)[C@H](O)CC[C@@H](O)C[C@@H](O)CC(=O)O[C@H]1C)C[C@H](O)[C@H]2C(=O)O` [Amphotericin B, reference compound], the Minimum inhibitory concentration amounted to 2 in assay [3]; 4 in assay [4] (setting [7]); 4 in assay [4] (setting [8]); 2 in assay [4] (setting [9]); 4 in assay [4] (setting [10]); 2 in assay [5] (setting [11]). For the same compound, the Minimum inhibitory concentration in assay [5] (setting [12]) is 2; in assay [5] (setting [13]), 2; in assay [5] (setting [14]) it was 2; in assay [6] (setting [15]), 2; in assay [6] (setting [16]) it was 0.5; in assay [6] (setting [17]) it was 2. In addition, the Minimum inhibitory concentration in assay [6] (setting [18]) and in assay [6] (setting [19]) was 2 in each case.

Take `CC(C)C[C@@H](NC(=O)[C@@H](CCCCN)NC(=O)[C@@H](CCCCN)NC(=O)[C@@H](Cc1ccccc1)NC(=O)[C@@H](CC(C)C)NC(=O)[C@@H](Cc1c[nH]c2ccccc12)NC(=O)[C@@H](CCCNC(=N)N)NC(=O)[C@@H](Cc1c[nH]c2ccccc12)NC(=O)[C@@H](CCCCN)NC(=O)[C@@H](CCCNC(=N)N)NC(=O)[C@H](N)CCCCN)C(=O)O` [310 D] (H-[dK][dR][dK][dW][dR][dW][dL][dF][dK][dK][dL]-OH): the “Minimum inhibitory concentration (MIC), S. aureus COL + 4 μg/ml Ertapenem” value in assay [1] is under 0.03 µg/mL. In assay [2], the “Minimum inhibitory concentration (MIC), S. aureus RN4220” value is over 64 µg/mL.

Turning to `CC(C)C[C@@H](NC(=O)[C@H](N)CCCNC(=N)N)C(=O)N[C@H](CCCCN)C(=O)N[C@H](Cc1c[nH]c2ccccc12)C(=O)N[C@H](Cc1ccccc1)C(=O)N[C@H](CC(C)C)C(=O)N[C@H](CC(C)C)C(=O)N[C@H](Cc1ccccc1)C(=O)N[C@H](CCCNC(=N)N)C(=O)N[C@H](CCCCN)C(=O)N[C@H](CCCNC(=N)N)C(=O)O` [308 D] (H-[dR][dL][dK][dW][dF][dL][dL][dF][dR][dK][dR]-OH), the “Minimum inhibitory concentration (MIC), S. aureus COL + 4 μg/ml Ertapenem” value in assay [1] was determined as 1 µg/mL. Moreover, the “Minimum inhibitory concentration (MIC), S. aureus RN4220” value in assay [2] worked out at 4 µg/mL.

For the compound `CC[C@H](C)[C@H](NC(=O)[C@H](CCSC)NC(=O)[C@H](C)NC(=O)[C@H](CCCNC(=N)N)NC(=O)[C@H](Cc1c[nH]c2ccccc12)NC(=O)[C@H](CCCCN)NC(=O)[C@@H](N)CCCNC(=N)N)C(=O)N[C@@H](CCCNC(=N)N)C(=O)N[C@@H](CC(C)C)C(=O)N[C@@H](Cc1c[nH]cn1)C(=O)N[C@@H](C)C(=O)N[C@@H](CCCCN)C(=O)N[C@@H](CCCNC(=N)N)C(=O)N[C@@H](CC(C)C)C(=O)N[C@@H](CCCNC(=N)N)C(=O)N[C@@H](CCCCN)C(=O)O` [Compound 104] (H-RKWRAMIRLHAKRLRK-OH), in assay [1], the “Minimum inhibitory concentration (MIC), S. aureus COL + 4 μg/ml Ertapenem” value came to 0.25 µg/mL. Also, the “Minimum inhibitory concentration (MIC), S. aureus RN4220” value in assay [2] is over 64 µg/mL.

On to `CC[C@H](C)[C@H](NC(=O)[C@H](Cc1c[nH]c2ccccc12)NC(=O)[C@@H](N)CCCCN)C(=O)N[C@H](C(=O)N[C@@H](Cc1c[nH]c2ccccc12)C(=O)N[C@@H](CCCNC(=N)N)C(=O)N[C@@H](Cc1c[nH]c2ccccc12)C(=O)N[C@@H](CCCNC(=N)N)C(=O)N[C@@H](Cc1ccccc1)C(=O)N[C@@H](CCCCN)C(=O)N[C@@H](CCCNC(=N)N)C(=O)O)C(C)C` [Compound 201] (H-KWIVWRWRFKR-OH), for which the “Minimum inhibitory concentration (MIC), S. aureus COL + 4 μg/ml Ertapenem” value in assay [1] was determined as 0.5 µg/mL. The “Minimum inhibitory concentration (MIC), S. aureus RN4220” value in assay [2] was found to be 64 µg/mL.

On to `CC[C@@H](C)[C@@H](NC(=O)[C@@H](CCSC)NC(=O)[C@@H](C)NC(=O)[C@@H](CCCNC(=N)N)NC(=O)[C@@H](Cc1c[nH]c2ccccc12)NC(=O)[C@@H](CCCCN)NC(=O)[C@H](N)CCCNC(=N)N)C(=O)N[C@H](CCCNC(=N)N)C(=O)N[C@H](CC(C)C)C(=O)N[C@H](Cc1c[nH]cn1)C(=O)N[C@H](C)C(=O)N[C@H](CCCCN)C(=O)N[C@H](CCCNC(=N)N)C(=O)N[C@H](CC(C)C)C(=O)N[C@H](CCCNC(=N)N)C(=O)N[C@H](CCCCN)C(=O)O` [104 D] (H-[dR][dK][dW][dR][dA][dM][dI][dR][dL][dH][dA][dK][dR][dL][dR][dK]-OH), for which the “Minimum inhibitory concentration (MIC), S. aureus COL + 4 μg/ml Ertapenem” value in assay [1] worked out at 4 µg/mL. For the same compound, the “Minimum inhibitory concentration (MIC), S. aureus RN4220” value in assay [2] was found to be 64 µg/mL.
